Experimental data: article PMC4774911, “Biochemical Screening of Five Protein Kinases from Plasmodium falciparum against 14,000 Cell-Active Compounds” (PLoS ONE, 2016)

Tests used:
[1] = molecular target: T1, Plasmodium falciparum calcium-dependent protein kinase 4 (CDPK4) (Plasmodium falciparum, UniProt Q8IBS5); experiment: CDPK4 Kinase-Glo ATP-consumption screen and dose-response; assay type: biochemical; settings: hits below 1 uM
T1 construct: 6-Histidine (N); made in house
T1 sequence (Q8IBS5 1-528): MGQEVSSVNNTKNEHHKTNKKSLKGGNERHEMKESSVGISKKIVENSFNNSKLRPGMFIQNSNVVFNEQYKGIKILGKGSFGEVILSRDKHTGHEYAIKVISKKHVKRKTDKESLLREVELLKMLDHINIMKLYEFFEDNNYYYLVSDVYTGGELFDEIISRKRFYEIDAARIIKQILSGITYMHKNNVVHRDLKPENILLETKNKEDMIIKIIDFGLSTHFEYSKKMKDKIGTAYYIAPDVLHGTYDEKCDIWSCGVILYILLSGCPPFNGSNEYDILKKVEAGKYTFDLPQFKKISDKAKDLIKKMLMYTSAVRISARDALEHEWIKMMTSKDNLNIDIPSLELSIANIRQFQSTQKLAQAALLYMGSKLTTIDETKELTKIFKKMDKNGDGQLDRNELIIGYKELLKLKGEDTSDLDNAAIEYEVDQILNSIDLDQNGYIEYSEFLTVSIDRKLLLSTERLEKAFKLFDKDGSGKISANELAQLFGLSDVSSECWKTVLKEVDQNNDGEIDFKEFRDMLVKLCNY
Method in brief: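 Single-point testing used 1 μM final compound, then dose-response, against CDPK4 and CDPK1 with Syntide-2 (40 μM) as substrate. After 90 min, reactions were halted by 5 mM EGTA, and kinase activity was inferred from depleted ATP via Kinase-Glo luminescence.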

PKG = PKG (Plasmodium falciparum, UniProt Q8I719); experiment: PKG IC50 (supplementary data file); assay type: biochemical
PKG, sequence (Q8I719 whole entry): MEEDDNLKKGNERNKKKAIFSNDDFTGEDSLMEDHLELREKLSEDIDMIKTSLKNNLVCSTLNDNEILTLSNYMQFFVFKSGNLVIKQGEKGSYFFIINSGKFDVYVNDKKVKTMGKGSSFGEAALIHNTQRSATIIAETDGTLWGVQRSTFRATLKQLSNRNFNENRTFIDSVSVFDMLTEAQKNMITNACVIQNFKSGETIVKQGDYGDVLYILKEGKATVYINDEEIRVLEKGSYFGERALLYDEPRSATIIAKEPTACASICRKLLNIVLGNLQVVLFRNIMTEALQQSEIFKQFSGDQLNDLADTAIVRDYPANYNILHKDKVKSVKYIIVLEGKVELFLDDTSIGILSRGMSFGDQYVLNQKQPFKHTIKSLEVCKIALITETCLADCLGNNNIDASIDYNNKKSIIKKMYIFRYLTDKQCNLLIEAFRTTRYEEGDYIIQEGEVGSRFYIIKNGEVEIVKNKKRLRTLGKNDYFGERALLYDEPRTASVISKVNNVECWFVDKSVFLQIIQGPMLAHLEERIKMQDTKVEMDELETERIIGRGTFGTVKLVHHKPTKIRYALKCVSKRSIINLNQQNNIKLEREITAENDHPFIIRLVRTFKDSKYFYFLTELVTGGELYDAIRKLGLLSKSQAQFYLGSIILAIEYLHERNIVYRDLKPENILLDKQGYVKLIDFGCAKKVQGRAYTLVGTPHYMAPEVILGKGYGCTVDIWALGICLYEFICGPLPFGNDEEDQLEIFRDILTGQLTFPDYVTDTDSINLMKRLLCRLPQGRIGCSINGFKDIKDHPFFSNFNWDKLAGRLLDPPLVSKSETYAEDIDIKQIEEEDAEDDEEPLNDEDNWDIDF
Source text: Supplement pone.0149996.s003.xls, sheet "combined_1_sorted"

ABL1 = ABL1 (Homo sapiens, UniProt P00519)
ABL1, sequence (P00519 whole entry): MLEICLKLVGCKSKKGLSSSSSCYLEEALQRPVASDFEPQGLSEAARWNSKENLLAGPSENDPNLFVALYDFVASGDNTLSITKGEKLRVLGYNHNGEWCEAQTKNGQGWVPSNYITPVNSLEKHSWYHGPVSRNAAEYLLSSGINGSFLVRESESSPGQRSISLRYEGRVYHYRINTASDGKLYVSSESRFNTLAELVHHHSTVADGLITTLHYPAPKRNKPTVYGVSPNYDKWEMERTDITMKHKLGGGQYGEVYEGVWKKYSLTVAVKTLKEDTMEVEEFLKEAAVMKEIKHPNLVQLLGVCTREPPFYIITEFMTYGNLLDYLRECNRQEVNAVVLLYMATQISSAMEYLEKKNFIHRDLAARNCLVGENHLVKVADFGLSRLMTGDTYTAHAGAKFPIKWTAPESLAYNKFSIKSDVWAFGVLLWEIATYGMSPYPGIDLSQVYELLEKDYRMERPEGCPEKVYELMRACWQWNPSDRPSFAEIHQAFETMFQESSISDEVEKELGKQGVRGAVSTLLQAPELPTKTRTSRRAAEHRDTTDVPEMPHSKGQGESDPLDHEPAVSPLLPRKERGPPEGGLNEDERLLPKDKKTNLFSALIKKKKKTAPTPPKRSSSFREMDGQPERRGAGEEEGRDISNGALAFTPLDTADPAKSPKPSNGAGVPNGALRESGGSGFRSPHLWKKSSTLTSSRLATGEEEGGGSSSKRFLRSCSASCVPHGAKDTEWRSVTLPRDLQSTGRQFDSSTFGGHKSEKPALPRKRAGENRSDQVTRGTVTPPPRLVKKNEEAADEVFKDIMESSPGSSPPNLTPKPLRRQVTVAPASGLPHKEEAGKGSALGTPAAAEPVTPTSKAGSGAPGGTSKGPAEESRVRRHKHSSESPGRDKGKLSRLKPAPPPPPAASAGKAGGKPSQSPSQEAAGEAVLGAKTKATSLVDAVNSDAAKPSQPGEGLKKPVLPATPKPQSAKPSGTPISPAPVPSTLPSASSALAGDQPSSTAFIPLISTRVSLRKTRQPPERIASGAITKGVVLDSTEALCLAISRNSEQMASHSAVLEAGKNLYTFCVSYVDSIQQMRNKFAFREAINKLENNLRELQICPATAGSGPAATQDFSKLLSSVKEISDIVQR

CN1CCN(c2ccc(Nc3ncc(C#N)c(Nc4ccccc4C(N)=O)n3)cc2)CC1.Cl [TCMDC-134116]
IC50 [1]: 0.188 µM
IC50 (PKG): 0.103 µM
IC50 (ABL1): 0.13 µM
